Assay results reported in patent US12295936B2, “Immunomodulating urea azalides” (Zoetis Services LLC, priority 2020, dated 2025).
Values after ≈ are worked out from the molar mass of the structure shown. “Also recorded” adds a separate entry of the source. Where two headings read alike, the source gives them in different places.

Tests used:
IL-1β = test: LPS-stimulated whole bovine blood assay, MSD cytokine detection; type: cell-based; details: Bos taurus, LPS-stimulated whole bovine blood; * = enhanced response at concentration indicating potential cytotoxicity
IL-6 [1] = test: as above; type: cell-based; details: Bos taurus, LPS-stimulated bovine whole blood; read-out: IL-6 (IC50 μM)
Text: In order to correlate RNA sequencing data to cytokine changes the whole blood assay was utilized. […] The enhancement result represents an overall stimulation of cytokine levels due to cellular stress or potential toxicity with increasing concentrations of the compound, representing a typical bell shape response curve for immunomodulatory activity.

[2] = tested on: bovine alveolar macrophages; test: Phospholipidosis assay (HCS LipidTox, Incucyte); type: cell-based; details: Bos taurus, Macrophage
Text: The second immunomodulation in vitro assay evaluated the potential for phospholipidosis with the compounds of the invention in bovine alveolar macrophages. This assay is utilized to determine cellular uptake of the compounds of the invention in relevant bovine and murine cell types. This assay utilized Invitrogen's commercially available HCS LipidTox detection kit with an Incucyte real time fluorescence reader to observe variations in EC50 and phospholipidosis profiles based on compound concentrations. Murine intraperitoneal macrophages were also used in the same assay to evaluate species variability for potential correlation with mouse efficacy results. The combination of the bovine whole blood assay and phospholipidosis assays enabled rank ordering for progression into in vivo testing in the murine challenge model.

Lipophilicity (logP) = type: physicochemical
Text: The lipophilicity of an organic compound can be described by a partition coefficient, log P, which can be defined as the ratio of the concentration of the unionized compound at equilibrium between organic and aqueous phases. Generally speaking, more lipophilic compounds are less soluble in aqueous media. A negative value for log P means the compound has a higher affinity for the aqueous phase (hydrophilic); when log P=0 the compound is equally partitioned between the lipid and aqueous phases; a positive value for log P denotes a higher concentration in the lipid phase (lipophilic). Lipophilicity is a major determining factor in a compound's absorption, distribution in the body, penetration across vital membranes and biological barriers, metabolism and excretion. The compounds of the invention are lipophilic (log P˜0.503 to 5.96) which aid in their transport and absorption into respiratory tissues, e.g., lungs.

[3] = tested on: bovine respiratory disease (BRD); test: Natural bovine respiratory disease (field) studies; type: in vivo, cattle; details: 14-day observation, beef calves at moderate risk for BRD, saline 43%
[4] = tested on: M. haemolytica (OSU-012103-BHI); details: 10 mg/kg, separate study; saline control 31%
M. haemolytica = test: In-vitro MIC model (CLSI broth micro-dilution); details: Mannheimia haemolytica
P. multocida = test: In-vitro MIC model (CLSI broth micro-dilution); details: Pasteurella multocida
H. somni = test: In-vitro MIC model (CLSI broth micro-dilution)
IL-6 [5] = test: Plasma IL-6 biomarker in bovine M. haemolytica challenge; details: bovine, in vivo
CD163 = CD163 expression by flow cytometry, blood of treated/challenged cattle; details: blood macrophages
[6] = tested on: BRD pathogens, M. haemolytica and P. multocida; test: MIC screening panel of BRD pathogens (antibacterial / non-antibacterial)
[7] = tested on: M. haemolytica (OSU-012103-BHI); test: In vivo bovine M. haemolytica intratracheal lung infection challenge model; details: for Mortality/Euthanization Yes, % / Mortality/Euthanization Yes, Number / Mortality/Euthanization No, % / Mortality/Euthanization No, Number: positive control; for Mortality/Euthanization No, % / Mortality/Euthanization No, Number: surviving animals; for Significance to T01, mortality: p≤0.2
[8] = Table 7 study, T04: 10 mg/kg subcutaneous
[9] = Table 9 study, T05: 10 mg/kg subcutaneous

## CCCNC[C@]1(O)[C@H](C)O[C@@H](O[C@H]2[C@H](C)[C@@H](O[C@@H]3O[C@H](C)C[C@H](NC)[C@H]3O)[C@](C)(O)C[C@@H](C)CN[C@H](C)[C@@H](O)[C@](C)(O)[C@@H](CC)OC(=O)[C@@H]2C)C[C@@]1(C)OC [Example M9, (2R,3S,4R,5R,8R,10R,11R,12S,13S,14R)-2-ethyl-3,4,10-trihydroxy-13-(((2R,4R,5S,6S)-5-hydroxy-4-methoxy-4,6-dimethyl-5-((propylamino)methyl)-tetrahydro-2H-pyran-2-yl)oxy)-11-(((2S,3R,4S,6R)-3-hydroxy-6-methyl-4-(methylamino)tetrahydro-2H-pyran-2-yl)oxy)-3,5,8,10,12,14-hexamethyl-1-oxa-6-azacyclopentadecan-15-one, reference compound]
IL-1β
  IC50: ~250 µM
IL-6 [1]
  IC50: > 250 µM
[2]
  EC50: 3740 µM
Lipophilicity (logP)
  logP: 2.2
[3]; 5 mg/kg (T02)
  Percent failure (treatment failure): 19.3%
[3]; 10 mg/kg (T03)
  Percent failure (treatment failure): 8.8%
[4]
  lung lesions: 20%
M. haemolytica
  MIC50: > 64 µg/mL
  MIC90: > 64 µg/mL
M. haemolytica; ATCC33396, read-out: Comparative MIC's, M. haemolytica ATCC 33396
  MIC: 32 µg/mL (≈ 40.4 µM)
M. haemolytica; read-out: Comparative MIC's, M. haemolytica 12726
  MIC: 32 µg/mL (≈ 40.4 µM)
M. haemolytica; read-out: Comparative MIC's, M. haemolytica 46571*
  MIC: 32 µg/mL (≈ 40.4 µM)
M. haemolytica; read-out: MIC to the M. haemolytica challenge strain
  MIC: > 64 µg/mL
P. multocida
  MIC50: 16 µg/mL (≈ 20.2 µM)
  MIC90: > 64 µg/mL
P. multocida; ATCC43137, read-out: Comparative MIC's, P. multocida ATCC 43137
  MIC: 16 µg/mL (≈ 20.2 µM)
H. somni; H. somni (25) lung isolates at necropsy, natural BRD study
  MIC Range: 8 to 64 µg/mL
H. somni; Histophilus somni
  MIC50: 32 µg/mL (≈ 40.4 µM)
  MIC90: 32 µg/mL (≈ 40.4 µM)
IL-6 [5]
  IL-6 levels (plasma) in bovine M. haemolytica challenge: significantly reduced; also recorded: downregulated
CD163
  CD163 expression in treated cattle: suppressed; also recorded: mitigates; also recorded: downregulated
[6]; read-out: MIC for the BRD bacterial strains tested / target pathogens
  MIC: ≤ 64 µg/mL
[6]; read-out: antibacterial / non-antibacterial (MIC for the BRD pathogens)
  MIC: < 64 µg/mL
[7]; 10 mg/kg, separate study, saline control 38.9%
  Mortality: 13%
[7]; T02: 10 mg/kg subcutaneous Day -1, M. haemolytica challenge Day 0, 6 animals
  Mortality: 1/6
[7]; T04: 10 mg/kg subcutaneous Day -1, No challenge, 6 animals
  Mortality: 0/6
[7]; Table 6 study, T04: 10 mg/kg subcutaneous
  Significance at .20 level to T01, lung lesions: Yes
[7]; [8]
  Mortality/Euthanization Yes, %: 12.5%
  Mortality/Euthanization Yes, Number: 3
  Mortality/Euthanization No, %: 87.5%
  Mortality/Euthanization No, Number: 21
  Significance to T01, mortality: Yes
[7]; Table 8 study, T05: 10 mg/kg subcutaneous
  Significance at .20 level to T01, lung lesions: yes
[7]; [9]
  Mortality/Euthanization Yes, %: 13.0%
  Mortality/Euthanization Yes, Number: 3
  Mortality/Euthanization No, %: 87.0%
  Mortality/Euthanization No, Number: 20
  Significance to T01, mortality: Yes
